The values that follow come from patent EP1948196B1, “USE OF TETRAORGANOSILICON COMPOUNDS” (Salama, Zoser B., priority 2005, dated 2007).

The subject of data set [1] is Maus. Nature of the data set: Pharmacological observation in the mouse (central, vegetative and toxic effects, acute toxicity). It is filed as in vivo. The conditions noted are these: for oLD (orienberende letale Dosis): mouse, in vivo. An excerpt: Pharmakologische Untersuchungen an der Maus
Die Verbindungen wurden an der Maus auf zentrale, vegetative und toxische Effekte geprüft. Durch systemische Einzelbeobachtungen sind neben der akuten Toxizität (orienberende letale Dosis, oLD) zentrale und vegetative Wirkungen der Testsubstanzen, insbesondere Effekte auf die Motorik und das Reaktionsvermögen, die Haut- und Rektaltemperatur sowie auf die Pupillenmotorik erfasst worden. Die getesteten Dosierungen betrugen 5 •10^-4, 1 • 10^-3 und 5 • 10^-3 mol/kg Körpergewicht Letale Wirkungen konnten bei keiner der Verbindungen beobachtet werden. Die oLD lag für Di(tetradecanoyloxy)dimethylsilan und Di(octadecanoyloxy)dimethylsilan unter 1 • 10^-3 mol/kg Körpergewicht für alle übrigen Verbindungen unter 5 • 10^-3 mollkg Körpergewicht.

In data set [2] the test system is Osteosarkome. Nature of the data set: Effect on osteosarcomas.
Data set [3] relates to Kälber-Aortenendothelzellinie BKEz-7. Nature of the data set: tissue or blood. It is filed as cell-based. The settings on record: for IC50: suspensions, 48 Stunden bei 37°C. An excerpt:
Prüfung auf zytotoxisches Potential an Kälber-Aortenendothelzellinie BKEz-7
Als Marker für eine zytotoxische Wirkung wird bei Zellen der charakterisierten Kälber-Aortenendothelzellinie BKEz-7 die Hemmkonzentration ermittelt, bei der eine 50%-ige Hemmung der Zellproliferation erfolgt (im Vergleich zu Kontrollkulturen ohne Zusatz eines Zellinhibitors). Die resultierende Reduzierung der Zellzahl um 50% wird als IC 50 ausgedrückt. Die getesteten Silanverbindungen wurden als Suspensionen auf die Kulturen gegeben und 48 Stunden bei 37°C inkubiert. Zusätzlich erfolgten morphologische Kontrollen und Vitalitätsbestimmungen mittels dem Neutralrot-Test. Mit Ausnahme des Di(dodecanoyloxy)dimethylsilans standen alle Ergebnisse der morphologischen Untersuchungen in guter Übereinstimmung. […]

Data set [4] has as its system Basalzellkarzinome. Nature of the data set: Effect on basal cell carcinomas.
Data set [5] relates to Seminome. Nature of the data set: Effect on seminomas.
Data set [6] deals with BxPC3 (pankreatisches Adenokarzinom). Nature of the data set: MTT test, triplicate, two-fold dilutions. Format: cell-based. The settings on record: Homo sapiens, BXPC-3, read-out: IC50 BxPC3. On the procedure:
(§1) Die Silan wurden in Ethanol aufgelöst und in Zellkulturmedien in Konzentrationen von bis zu 500 µg/ml resuspendiert. Es wurden MTT Tests in dreifacher Ausführung durchgeführt, für welche doppelte Lösungen (7 Schritte) und colo205 (Kofon-Karzinom), BxPC3 (pankreatisches Adenokarzinom) sowie T47D (Brustkrebs) benutzt wurden.
On the technique in general: Tetrazolium dyes change colour on reduction, which living cells bring about.

For data set [7], the system named is T47D (Brustkrebs). Nature of the data set: MTT test, triplicate, two-fold dilutions. Format: cell-based. The settings on record: Homo sapiens, T47D, read-out: IC50 T47D. How it is done: as §1
Data set [8] concerns colo205 (Kofon-Karzinom). Put plainly: MTT test, triplicate, two-fold dilutions. Format: cell-based. The conditions noted are these: Homo sapiens, COLO 205, read-out: IC50 Colo205. On the procedure: as §1

Values after ≈ are worked out from the molar mass of the structure shown.

Take `CCCCCCCCCC(=O)O[Si](C)(C)OC(=O)CCCCCCCCC` [Di(decanoyloxy)dimethylsilan]: the “zentrale, vegetative und toxische Effekte (Verhaltensänderungen)” value (“zentrale … (Verhaltensänderungen)” below) in data set [1] (1•10^-3 mol/kg) is listed as “Piloerektion”; in data set [1] (5•10^-3 mol/kg), “schwach bis mäßig ausgeprägte Verhaltensänderung en”; in data set [1] (5•10^-4 mol/kg), “keine Verhaltensänderungen”. Moreover, the “Wirkung auf Osteosarkome” value in data set [2] is “zeigen eine Wirkung”.
Usually IC50 stands for the point on the concentration scale where inhibition reaches its midpoint. `CCCCCCCCCC(=O)O[Si](OC(=O)CCCCCCCCC)(c1ccccc1)c1ccccc1` [Di(decanoyloxy)diphenylsilan]: the “Bedenkliche Toxizität” value in data set [3] was “-”. Moreover, the IC50 in data set [3] turned out to be 14 µM. Also, the figures for the “zentrale … (Verhaltensänderungen)” value in data set [1] (1•10^-3 mol/kg), in data set [1] (5•10^-3 mol/kg) and in data set [1] (5•10^-4 mol/kg) were “keine Verhaltensänderungen”, “schwache Ataxie” and “keine Verhaltensänderungen”, respectively. Also, in data set [4], the “Wirkung auf Basalzellkarzinome” value is given as “zeigen eine Wirkung”.
As to `CCCCCCCCCC(=O)O[Si](CCC)(CCC)OC(=O)CCCCCCCCC` [Di(decanoyloxy)dipropylsilan], the “Wirkung auf Seminome” value in data set [5] is given as “zeigen eine Wirkung”.
Regarding `CCCCCCCCCCCC(=O)O[Si](OC(=O)CCCCCCCCCCC)(c1ccccc1)c1ccccc1` [Di(dodecanoyloxy)diphenylsilan], the “Bedenkliche Toxizität” value in data set [3] is “-”. Further, in data set [3], inhibition was half-maximal at 36 µM (IC50). The “zentrale … (Verhaltensänderungen)” value in data set [1] (1•10^-3 mol/kg) is “keine Verhaltensänderungen”; in data set [1] (5•10^-3 mol/kg), “keine Verhaltensänderungen”; in data set [1] (5•10^-4 mol/kg), “keine Verhältensänderungen”. Moreover, the “Wirkung auf Basalzellkarzinome” value in data set [4] was “zeigen eine Wirkung”.
In the case of `CCCCCCCCC(=O)O[Si](C)(C)OC(=O)CCCCCCCC` [Di(nonanoyloxy)dimethylsilan], in data set [2], the “Wirkung auf Osteosarkome” value was “zeigen eine Wirkung”.
Take `CCCCCCCCC(=O)O[Si](CCC)(CCC)OC(=O)CCCCCCCC` [Di(nonanoyloxy)dipropylsilan]: in data set [5], the “Wirkung auf Seminome” value was “zeigen eine Wirkung”.
For the molecule `CCCCCCCCCCCCCCCCCC(=O)O[Si](C)(C)OC(=O)CCCCCCCCCCCCCCCCC` [Di(octadecanoyloxy)dimethylsilan], in data set [3], the “Bedenkliche Toxizität” value is “-” and inhibition was half-maximal at 495 µM (IC50). For the same molecule, the “zentrale … (Verhaltensänderungen)” value in data set [1] (1•10^-3 mol/kg) is given as “keine Verhaltensänderungen”. For the same molecule, in data set [1] (5•10^-4 mol/kg), the “zentrale … (Verhaltensänderungen)” value is “keine Verhaltensänderungen”. For the same molecule, in data set [1], the “oLD (orienberende letale Dosis)” value was < 1 • 10^-3 mol/kg Körpergewicht. The “Wirkung auf Osteosarkome” value in data set [2] is listed as “zeigen eine Wirkung”.
In the case of `CCCCCCCC(=O)O[Si](C)(C)OC(=O)CCCCCCC` [Di(octanoyloxy)dimethylsilan], the “Wirkung auf Osteosarkome” value in data set [2] is recorded as “zeigen eine Wirkung”.
Consider `CCCCCCCCCCCCCC(=O)O[Si](C)(C)OC(=O)CCCCCCCCCCCCC` [Di(tetradecanoyloxy)dimethylsilan], for which the “Bedenkliche Toxizität” value in data set [3] is given as “-”. This molecule also returned an IC50 in data set [3] of 110 µM. Besides, the “zentrale … (Verhaltensänderungen)” value in data set [1] (1•10^-3 mol/kg) is “Ataxie”; in data set [1] (5•10^-4 mol/kg), “schwache Ataxie, Piloerektion”. In addition, the “oLD (orienberende letale Dosis)” value in data set [1] was < 1 • 10^-3 mol/kg Körpergewicht. In data set [2], the “Wirkung auf Osteosarkome” value is “zeigen eine Wirkung”.
With `CCCCCCCCCCC(=O)O[Si](CCC)(CCC)OC(=O)CCCCCCCCCC` [Di(undecanoyloxy) dipropylsilan], in data set [5], the “Wirkung auf Seminome” value is “zeigen eine Wirkung”.
As to `CCCCCCCCCCCCC(=O)O[Si](CC)(CC)OC(=O)CCCCCCCCCCCC` [Si 6, Di (tridecanoyloxy) diethylsilan], the IC50 in data set [6] amounted to 150 µg/mL (≈ 292 µM); in data set [7] it was 250 µg/mL (≈ 487 µM); in data set [8] it was 240 µg/mL (≈ 468 µM).
For `CCCCCCCCCCCCCC(=O)O[Si](CC)(CC)OC(=O)CCCCCCCCCCCCC` [Si 14, Di (tetradecanoyloxy) diethylsilan], in that order: 70 µg/mL (≈ 129 µM), 65 µg/mL (≈ 120 µM) and 250 µg/mL (≈ 462 µM).
